This note sets out measurements from patent US20260216074A1, “USE OF PACLITAXEL CATIONIC LIPOSOME IN TREATING TUMORS” (CSPC ZHONGQI PHARMACEUTICAL TECHNOLOGY (SHIJIAZHUANG) CO., …, priority 2023, published 2026).

SMILES strings stand for the structures. Marks after values point to notes of the source that are not given here.

Assay [1] deals with prostate cancer RM-1 allografts. Nature of the assay: Inhibitory effect of combination with DDP on prostate cancer RM-1 allografts in mice. In kind it is in vivo, mouse RM-1 cells in female C57/BL6 mice. How it is done: Experimental animal: female C57/BL6 mice provided by Beijing Vital River Laboratory Animal Technology Co., Ltd.
Experimental method: Female C57/BL6 mice were subcutaneously inoculated with mouse prostate RM-1 cells. Six days after inoculation, the mice were grouped when the mean tumor volume was about 140 mm^3 (d0). Drugs were administered intravenously (except that DDP was administered intraperitoneally) at d0, d2, d4, d6, d8, and d10 for a total of 6 times. The experiment was terminated at d15. In the A1 high-dose group, A1 was administered at a dose of 12 mg/kg for the first three times and 6 mg/kg for the last three times, with a cumulative dose of 54 mg/kg; in the A1 low-dose group, A1 was administered at a dose of 6 mg/kg for six times, with a cumulative dose of 36 mg/kg; in the DPP group, DPP was administered at a dose of 1 mg/kg for six times, with a cumulative dose of 6 mg/kg; in the vehicle control group, 5% glucose injection (at an equal volume to A1 high-dose group) was administered; in the A1+DDP-1 group, A1 was administered at a dose of 6 mg/kg for six times, with a cumulative dose of 36 mg/kg, and DPP was administered at a dose of 1 mg/kg for six times, with a cumulative dose of 6 mg/kg; in the A1+DDP-2 group, A1 was administered at a dose of 12 mg/kg for the first three times and 6 mg/kg for the last three times with a cumulative dose of 54 mg/kg, and DPP was administered at a dose of 1 mg/kg for six times, with a cumulative dose of 6 mg/kg. During the experiment, the body weight and tumor volume of animals were monitored three times a week, and the values of the tumor volume (TV), relative tumor volume (RTV), and relative tumor proliferation rate (T/C) were calculated.
Methods for drug preparation: A1: the paclitaxel cationic liposome was dissolved by adding water for injection, and then diluted with glucose and sodium chloride injection to the desired concentration; DDP: the DDP powder was dissolved in 5% glucose injection and subjected to ultrasound to formulate the desired concentration.

For assay [2], the system named is human pancreatic cancer CFPAC-1 xenografts. The experiment in a line: Inhibitory effect on human pancreatic cancer CFPAC-1 xenografts in mice. Type of assay: in vivo, human cells in female Nu/Nu nude mice. How it is done:
Experimental animal: female Nu/Nu nude mice provided by Beijing Vital River Laboratory Animal Technology Co., Ltd.
Experimental method: Female Nu/Nu nude mice were subcutaneously inoculated with human pancreatic cancer CFPAC-1 cells. 5 days after inoculation, the mice were divided into 7 groups when the mean tumor volume was 228 mm^3 (d0), namely, the vehicle control group (5% glucose injection), the 6 mg/kg of A1 group, the 3 mg/kg or 6 mg/kg of A1+20 mg/kg of gemcitabine for injection (GEM) group, the 6 mg/kg of paclitaxel injection (Taxol) group, the 6 mg/kg of Taxol+20 mg/kg of GEM group, and the 20 mg/kg of GEM group, respectively. There were 10 mice in each group. Drugs were administered intravenously (except that the GEM was administered intraperitoneally for 5 times (at the first five time points)) at d0, d3, d6, d9, d13, and d16 for a total of 6 times. After the last administration, the mice were further observed for 11 d (i.e. d27) and the experiment was terminated. During the experiment, the body weight and tumor volume of animals were monitored twice a week, and the tumor volume (TV) was calculated. At the end of the experiment, the tumor weight was weighed and the tumor weight inhibition rate was calculated.
Methods for drug preparation: A1 was prepared using the same method as in Example 2. The gemcitabine for injection was dissolved in saline to achieve the desired concentration. Paclitaxel injection (Taxol) was diluted with saline to the desired concentration.
(In general: In xenograft studies the graft and the host belong to different species.)

For assay [3], the system named is human triple-negative breast cancer MDA-MB-231 xenografts. Nature of the assay: Inhibitory effect on human triple-negative breast cancer MDA-MB-231 xenografts in mice. The conditions noted are these: dose 400 mg/kg po. Type of assay: in vivo, human cells in female NOD/SCID mice. How it is done:
Experimental animal: female NOD/SCID mice provided by Beijing Vital River Laboratory Animal Technology Co., Ltd.
Experimental method: Female NOD/SCID mice were subcutaneously inoculated with human triple-negative breast cancer MDA-MB-231 cells. 7 days after inoculation, the mice were divided into 7 groups when the mean tumor volume was 120 to 130 mm^3 (d0), namely, the vehicle control group (5% glucose injection), the 6 mg/kg of A1 group, the 3 mg/kg or 6 mg/kg of A1+400 mg/kg of capecitabine for injection (CAP) group, the 6 mg/kg of paclitaxel injection (Taxol) group, the 6 mg/kg of Taxol+400 mg/kg of CAP group, and the 400 mg/kg of CAP group, respectively. The CAP for injection was administered intragastrically twice a week and the other drugs were administered intravenously twice a week for a total of 7 times (d0, d3, d7, d10, d14, d17, and d21). The experiment was terminated at d28. During the experiment, the body weight and tumor volume of animals were monitored twice a week, and the tumor volume (TV) was calculated. At the end of the experiment, the tumor weight was weighed and the tumor weight inhibition rate was calculated.
Methods for drug preparation: CAP was prepared by diluting with water for injection to the desired concentration, and the rest of drugs were prepared according to the method described in Example 3.

What is called T/C is the result in the treated group divided by that in the control group, in per cent. In the case of `N.N.[Cl][Pt][Cl]` [DDP, Cisplatin], the “Tumor Volume d15” value in assay [1] (cumulative dose 6 mg/kg (1 mg/kg x6) i.p., d0-d10, x ± sd, n = 9) came out at 3494.6 ± 710.9 mm^3. Moreover, the “Tumor Volume d0” value in assay [1] (cumulative dose 6 mg/kg (1 mg/kg x6) i.p., d0 at grouping, before dosing, x ± sd, n = 9) worked out at 145.1 ± 22.8 mm^3. Moreover, the T/C in assay [1] (cumulative dose 6 mg/kg i.p., d15) is 77.1%. Further, the RTV in assay [1] (cumulative dose 6 mg/kg i.p., d15, x ± sd, n = 9) was determined as 24.9 ± 7.6.

With `Nc1ccn([C@@H]2O[C@H](CO)[C@@H](O)C2(F)F)c(=O)n1` [GME, gemcitabine], in assay [2] (dose 20 mg/kg ip x5, x ± sd, n = 10), the “Tumor Volume d27” value is listed as 720.9 ± 152.8** mm^3. Moreover, the “Tumor Volume d0” value in assay [2] (dose 20 mg/kg ip, d0 at grouping, before dosing, x ± sd, n = 10) was found to be 227.3 ± 52.8 mm^3. In addition, the “Tumor Weight Inhibition Rate” value in assay [2] (dose 20 mg/kg ip, end of experiment (d27)) is on record as 48.4%. Further, the “Tumor Weight” value in assay [2] (dose 20 mg/kg ip, end of experiment (d27), x ± sd, n = 10) is given as 0.8238 ± 0.3253 g.

As for `CCCCCOC(=O)Nc1nc(=O)n([C@@H]2O[C@H](C)[C@@H](O)[C@H]2O)cc1F` [CAP, capecitabine], in assay [3] (7 times, x ± sd, n = 10), the “Tumor Volume d20” value is on record as 1708.3 ± 564.8** mm^3. Also, the “Tumor Volume d0” value in assay [3] (d0 at grouping, before dosing, x ± sd, n = 10) stood at 124.5 ± 19.4 mm^3. Moreover, the “Tumor Weight Inhibition Rate” value in assay [3] (end of experiment (d28)) worked out at 33.4%. Moreover, the “Tumor Weight” value in assay [3] (end of experiment (d28), x ± sd, n = 10) worked out at 1.3679 ± 0.2649 g.
